pIC50: −log10 of the molar value.
Key:
[1] = test system: L1210FR; settings: for differences in IC50 values against the three cell lines: L1210FR, L1210, WI38, at most
[2] = in vitro; settings: human, WI38 human lung fibroblast cells
[3] = test system: L1210; test: cells; settings: Mus musculus, L1210, 72 h, read-out: Cytotoxicities (IC50), L1210
[4] = taxoid released from first-generation mAb-taxoid DDS; cited from earlier work
[5] = test system: L1210FR cells; test: Internalization of biotin-FITC probe 2 by CFM and flow cytometry; format: cell-based, murine; settings: 100 nM

With `CC(=O)O[C@@]12CO[C@@H]1C[C@H](O)[C@@]1(C)C(=O)[C@H](OC(=O)C3CC3)C3=C(C)[C@@H](OC(=O)[C@H](O)[C@H](C=C(C)C)NC(=O)OC(C)(C)C)C[C@@](O)([C@@H](OC(=O)c4ccccc4)[C@H]21)C3(C)C` [SB-T-1214] the “times more potent than paclitaxel” value ([1]; against L1210FR) was “ca. 13 times”.
For `CC(=O)O[C@H]1C(=O)[C@@]2(C)[C@H]([C@H](OC(=O)c3ccccc3)[C@]3(O)C[C@H](OC(=O)[C@H](O)[C@@H](NC(=O)c4ccccc4)c4ccccc4)C(C)=C1C3(C)C)[C@]1(OC(C)=O)CO[C@@H]1C[C@@H]2O` [paclitaxel, reference compound], the IC50 at 72 h [2] was 157 nM, the “differences in IC50 values against the three cell lines” value [1] was “less than 45%” and the pIC50 ([1]; mouse, 72 h) was 6.92. The pIC50 [3] was 6.82.
For SB-T-1214-fluorescein [compound 24], the “differences in IC50 values against the three cell lines” value [1] was “less than 45%” and the “times less potent than the parent SB-T-1214” value ([1]; against L1210FR) was “ca. 9 times”.
For SB-T-12136-SH, the “cytotoxicity, times weaker than the parent taxoid (SB-T-1213)” value [4] is listed as 8 times.
With biotin-FITC [compound 2] the “diminished fluorescence in the cells at 4 °C” value ([5]; 4 °C, 3 h versus 37 °C, by flow cytometry) was “ca. 6 times”, the “internalization into L1210FR cells (CFM)” value ([5]; 37 °C, 3 h) was “efficient internalization” and the “decrease in fluorescence after pre-incubation with excess free biotin” value ([5]; 37 °C, 3 h, biotin 2 mM pre-incubated 1 h) was “ca. 4.5 times”. For the same compound, the “decrease in fluorescence inside the cells in the presence of NaN3” value ([5]; 3 h, 37 °C, 0.05 % (w/v) NaN3) was “ca. 4 times”.

From paper PMC3036843 (Bioconjugate chemistry, 2010)
